What was measured:
11β-HSD2 [1] = target: T1, 11β-HSD2 (Homo sapiens, UniProt P80365); assay: 11β-HSD2 activity in lysates of stably transfected HEK-293 cells (cortisol to cortisone); assay type: biochemical; set-up: expressed in transfected cells; host or cells: HEK-293, stably transfected; conditions: for Vmax of 11β-HSD2 in presence of inhibitor: control 2.14 ± 0.32
T1 sequence (P80365 1-405): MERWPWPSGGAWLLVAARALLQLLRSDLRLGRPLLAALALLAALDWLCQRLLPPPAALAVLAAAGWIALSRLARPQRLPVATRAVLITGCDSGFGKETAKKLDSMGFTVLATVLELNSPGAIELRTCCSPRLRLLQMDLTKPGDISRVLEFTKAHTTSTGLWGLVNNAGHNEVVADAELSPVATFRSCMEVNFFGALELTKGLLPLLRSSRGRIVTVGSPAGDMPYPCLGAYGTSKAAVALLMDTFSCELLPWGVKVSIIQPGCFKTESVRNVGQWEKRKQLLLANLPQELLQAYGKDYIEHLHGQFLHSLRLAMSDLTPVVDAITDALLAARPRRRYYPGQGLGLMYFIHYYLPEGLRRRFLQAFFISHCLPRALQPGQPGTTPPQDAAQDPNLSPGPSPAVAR
Procedure: Cells were rinsed 3 times with phosphate-buffered saline (PBS) and resuspended in 2 mL ice-cold buffer TS2 (100 mM NaCl, 1 mM EGTA, 1 mM EDTA, 1 mM MgCl2, 250 mM sucrose, 20 mM Tris-HCl, pH 7.4). Aliquots of the cell suspension were frozen at −20°C, retaining full enzymatic activity for at least 3 months. For determinationof 11β-HSD2 activity, aliquots were thawed, sonicated, and diluted 1:12 in buffer TS2 (4°C). We carried out reactions in a final volume of 20 μL containing 10 nCi [1,2,6,7-^3H]-cortisol, 400-μM NAD^+, and different concentrations of unlabeled cortisol. […] Incubations were for 10 min at 37°C.

11β-HSD2 [2] = target: T1, 11β-HSD2; assay: 11β-HSD2 activity in intact stably transfected HEK-293 cells; assay type: cell-based; set-up: expressed in transfected cells; host or cells: HEK-293, stably transfected; conditions: for IC50: HEK-293 stably transfected, 40 nM cortisol, 2 hr; for 11β-HSD2 activity in intact cells, compound alone: concentrations 50% below their IC50 value
11β-HSD2 [3] = target: 11β-HSD2 (Rattus norvegicus, UniProt P50233)
Procedure: (§1) SW-620 (human colorectal adenocarcinoma) cells and JEG-3 (human choriocarcinoma) cells were cultured according to the recommendations of the supplier (American Type Culture Collection, Manassas, VA, USA).
(§2) HEK-293 cells stably transfected with 11β-HSD2 (25,000 cells per well) were seeded 24 hr prior to the assay in poly-D-lysine coated 96-well Biocoat plates (Becton Dickinson, Basel, Switzerland). The medium was carefully removed, followed by the addition of 30 μL fresh medium, 10 μL medium containing various concentrations of organotins, and 10 μL radiolabeled cortisol. The reaction volume was 50 μL, with a final cortisol concentration of 40 nM. The cells were incubated for 2 hr at 37°C under 5% CO2. We stopped reactions by adding an excess of unlabeled cortisone and cortisol in methanol, and separated steroids using thin-layer chromatography, followed by scintillation counting. 11β-HSD2 activity in JEG-3, SW-620, and RCCD-2 cells was measured similarly by adjusting the cell density and reaction time to obtain a maximal conversion of cortisol between 15 and 25%.

11β-HSD2 [4] = target: T1, 11β-HSD2; conditions: endogenous enzyme, intact cells
Procedure: as §1, §2

11β-HSD2 Cys^48Ser = 11β-HSD2 Cys^48Ser (Homo sapiens, UniProt P80365, C48S); conditions: read-out: TBT IC50 ± SD, Cys^48Ser; mutant Cys^48Ser, lysate
Procedure: (§3) Cells were rinsed 3 times with phosphate-buffered saline (PBS) and resuspended in 2 mL ice-cold buffer TS2 (100 mM NaCl, 1 mM EGTA, 1 mM EDTA, 1 mM MgCl2, 250 mM sucrose, 20 mM Tris-HCl, pH 7.4). […] For determinationof 11β-HSD2 activity, aliquots were thawed, sonicated, and diluted 1:12 in buffer TS2 (4°C). We carried out reactions in a final volume of 20 μL containing 10 nCi [1,2,6,7-^3H]-cortisol, 400-μM NAD^+, and different concentrations of unlabeled cortisol. […] Incubations were for 10 min at 37°C.
(§4) All constructs were verified by sequencing and recloned into pcDNA3 expression vector. Wild-type and mutant enzymes were expressed in HEK-293 cells, lysates were prepared, and proteins were separated by sodium dodecyl sulfate (SDS) gel electrophoresis. Proteins were transferred to nitrocellulose, and expression levels of 11β-HSD2 constructs were detected using mouse monoclonal antibody M2 raised against the FLAG epitope and visualized with a horseradish peroxidase conjugated anti-mouse antibody and enhanced chemiluminescence Western kit (Pierce, Rockford, IL, USA). After detection of 11β-HSD2 constructs, nitrocellulose membranes were stripped and incubated with rabbit polyclonal anti-actin IgG (Santa Cruz Biotechnology Inc., Santa Cruz, CA, USA) and horseradish peroxidase–conjugated goat anti-rabbit IgG to adjust for the amount of proteins loaded on the gel. The expression of mutant relative to wild-type enzyme was adjusted for calculation of kinetic parameters.

11β-HSD2 Cys^127Ser = 11β-HSD2 Cys^127Ser (Homo sapiens, UniProt P80365, C127S); conditions: read-out: TBT IC50 ± SD, Cys^127Ser; mutant Cys^127Ser, lysate
Procedure: as §3, §4

11β-HSD2 Cys^371Ser = 11β-HSD2 Cys^371Ser (Homo sapiens, UniProt P80365, C371S); conditions: read-out: TBT IC50 ± SD, Cys^371Ser; mutant Cys^371Ser, lysate
Procedure: as §3, §4

11β-HSD2 Cys^128Ser = 11β-HSD2 Cys^128Ser (Homo sapiens, UniProt P80365, C128S); conditions: read-out: TBT IC50 ± SD, Cys^128Ser; mutant Cys^128Ser, lysate
Procedure: as §3, §4

11β-HSD2 Cys^264Ser = 11β-HSD2 Cys^264Ser (Homo sapiens, UniProt P80365, C264S); conditions: lysate
Procedure: as §3, §4

11β-HSD2 Cys^188Ser = 11β-HSD2 Cys^188Ser (Homo sapiens, UniProt P80365, C188S); conditions: read-out: TBT IC50 ± SD, Cys^188Ser; mutant Cys^188Ser, lysate
Procedure: as §3, §4

11β-HSD2 Cys^248Ser = 11β-HSD2 Cys^248Ser (Homo sapiens, UniProt P80365, C248S); conditions: read-out: TBT IC50 ± SD, Cys^248Ser; mutant Cys^248Ser, lysate
Procedure: as §3, §4

17β-HSD1 = target: T2, 17β-HSD1 (Homo sapiens, UniProt P14061); assay: 17β-HSD1 activity in cell lysates (estrone to estradiol); assay type: biochemical; conditions: for inhibition of 17β-HSD1: lysate; for IC50: lysates of transfected HEK-293 cells, 200 nM estrone, NADPH, read-out: IC50 17β-HSD1, cell lysate
T2 construct: expressed in transfected cells; host or cells: HEK-293, calcium-phosphate transfection, lysate
T2 sequence (P14061 1-328): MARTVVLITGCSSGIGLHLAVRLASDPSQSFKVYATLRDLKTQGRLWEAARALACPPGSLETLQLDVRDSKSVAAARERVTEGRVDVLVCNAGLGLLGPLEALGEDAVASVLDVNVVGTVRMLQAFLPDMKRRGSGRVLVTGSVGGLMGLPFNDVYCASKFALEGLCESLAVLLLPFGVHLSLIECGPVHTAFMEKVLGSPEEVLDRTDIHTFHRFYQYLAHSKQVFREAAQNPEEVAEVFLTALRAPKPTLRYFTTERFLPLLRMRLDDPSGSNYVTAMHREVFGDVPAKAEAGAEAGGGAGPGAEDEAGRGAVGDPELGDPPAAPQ
Procedure: (§5) For determination of 11β-HSD1, 17β-HSD1, and 17β-HSD2 activity, HEK-293 cells transfected by the calcium-phosphate precipitation method were harvested 48 hr later, washed with PBS, and centrifuged for 3 min at 150 × g. Supernatants were removed, cell pellets quick-frozen in a dry ice ethanol bath, and stored at −70°C. For assaying 11β-HSD1, we dissolved pellets in TS2 buffer; for 17β-HSD1 or 17β-HSD2, we used a buffer containing 50 mM potassium phosphate, 20% glycerol, and 1 mM EDTA. We measured 11β-HSD1 oxoreductase activity as described recently ([Atanasov et al. 2004]), using radiolabeled cortisone as substrate. 17β-HSD1 and 17β-HSD2 activities were measured in the presence of radiolabeled estrone or estradiol and unlabeled steroid at final concentrations of 200 nM and 500 μM NADPH or NAD^+, respectively.

17β-HSD2 = target: T3, 17β-HSD2 (Homo sapiens, UniProt P37059); assay: 17β-HSD2 activity in cell lysates (estradiol to estrone); assay type: biochemical; conditions: for IC50: lysates of transfected HEK-293 cells, 200 nM estradiol, NAD+, read-out: IC50 17β-HSD2, cell lysate
T3 construct: expressed in transfected cells; host or cells: HEK-293, calcium-phosphate transfection, lysate
T3 sequence (P37059 1-387): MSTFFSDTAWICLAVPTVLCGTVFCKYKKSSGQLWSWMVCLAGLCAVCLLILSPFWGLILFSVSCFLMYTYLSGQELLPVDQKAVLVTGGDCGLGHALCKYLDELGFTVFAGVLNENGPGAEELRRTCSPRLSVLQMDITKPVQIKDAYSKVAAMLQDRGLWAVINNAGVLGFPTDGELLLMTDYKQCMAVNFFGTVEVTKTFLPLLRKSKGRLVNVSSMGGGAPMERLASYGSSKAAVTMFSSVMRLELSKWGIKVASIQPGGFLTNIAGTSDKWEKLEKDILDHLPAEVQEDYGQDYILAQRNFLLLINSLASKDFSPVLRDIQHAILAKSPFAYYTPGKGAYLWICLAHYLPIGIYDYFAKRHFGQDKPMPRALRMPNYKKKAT
Procedure: as §5

11β-HSD1 = target: T4, 11β-HSD1 (Homo sapiens, UniProt P28845); assay: 11β-HSD1 oxoreductase activity in cell lysates (cortisone to cortisol); assay type: biochemical; conditions: for inhibition of 11β-HSD1-dependent conversion of cortisone to cortisol: concentrations up to 200 μM, lysate; for IC50: lysates of transfected HEK-293 cells, cortisone as substrate, read-out: IC50 11β-HSD1, cell lysate
T4 construct: expressed in transfected cells; host or cells: HEK-293, calcium-phosphate transfection, lysate
Procedure: as §5

[5] = ref McVey and Cooke 2003; cited from earlier work
[6] = 40 nM cortisol, 400 μM NAD+, 10 min 37°C, read-out: IC50 11β-HSD2, cell lysate

T4 sequence (P28845 whole entry): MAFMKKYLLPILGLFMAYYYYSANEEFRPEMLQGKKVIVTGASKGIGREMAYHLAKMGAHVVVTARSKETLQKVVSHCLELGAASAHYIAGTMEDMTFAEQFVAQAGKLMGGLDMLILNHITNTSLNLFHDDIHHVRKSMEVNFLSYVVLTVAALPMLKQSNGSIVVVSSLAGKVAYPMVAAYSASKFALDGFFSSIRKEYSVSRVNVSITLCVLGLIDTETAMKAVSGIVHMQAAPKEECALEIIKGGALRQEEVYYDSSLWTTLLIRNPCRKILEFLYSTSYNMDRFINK
11β-HSD2 Cys^264Ser, sequence (P80365 whole entry C264S): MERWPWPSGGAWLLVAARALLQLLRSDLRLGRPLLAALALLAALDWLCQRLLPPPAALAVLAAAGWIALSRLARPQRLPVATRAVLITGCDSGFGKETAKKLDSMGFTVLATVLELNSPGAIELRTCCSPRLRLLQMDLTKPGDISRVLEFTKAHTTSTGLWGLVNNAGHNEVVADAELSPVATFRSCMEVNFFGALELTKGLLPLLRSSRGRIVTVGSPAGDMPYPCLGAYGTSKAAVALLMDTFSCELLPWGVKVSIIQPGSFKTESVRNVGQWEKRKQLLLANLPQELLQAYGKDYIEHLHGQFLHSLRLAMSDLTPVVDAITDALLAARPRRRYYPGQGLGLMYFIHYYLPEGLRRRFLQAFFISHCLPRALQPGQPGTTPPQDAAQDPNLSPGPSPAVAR
11β-HSD2 (Rattus norvegicus, UniProt P50233), sequence (P50233 whole entry): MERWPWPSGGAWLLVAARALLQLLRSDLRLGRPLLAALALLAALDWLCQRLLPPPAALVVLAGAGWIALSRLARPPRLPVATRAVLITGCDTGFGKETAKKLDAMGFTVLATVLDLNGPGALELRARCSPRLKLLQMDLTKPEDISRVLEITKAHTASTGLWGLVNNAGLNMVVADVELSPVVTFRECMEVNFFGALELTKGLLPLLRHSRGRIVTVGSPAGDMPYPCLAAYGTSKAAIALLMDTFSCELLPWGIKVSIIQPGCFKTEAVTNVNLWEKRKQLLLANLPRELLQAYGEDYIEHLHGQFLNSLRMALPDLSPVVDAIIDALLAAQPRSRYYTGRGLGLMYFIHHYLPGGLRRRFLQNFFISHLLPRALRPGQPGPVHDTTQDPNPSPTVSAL
11β-HSD2 Cys^127Ser, sequence (P80365 whole entry C127S): as the sequence (P80365 whole entry C264S) above, with C127S, S264C counted along it
11β-HSD2 Cys^371Ser, sequence (P80365 whole entry C371S): as the sequence (P80365 whole entry C264S) above, with S264C, C371S counted along it
11β-HSD2 Cys^128Ser, sequence (P80365 whole entry C128S): as the sequence (P80365 whole entry C264S) above, with C128S, S264C counted along it
11β-HSD2 Cys^188Ser, sequence (P80365 whole entry C188S): as the sequence (P80365 whole entry C264S) above, with C188S, S264C counted along it
11β-HSD2 Cys^248Ser, sequence (P80365 whole entry C248S): as the sequence (P80365 whole entry C264S) above, with C248S, S264C counted along it
11β-HSD2 Cys^48Ser, sequence (P80365 whole entry C48S): as the sequence (P80365 whole entry C264S) above, with C48S, S264C counted along it

O[C@@H](CS)[C@@H](O)CS (racemic) [DTT, dithiothreitol, reference compound]
effect on 11β-HSD2 enzymatic activity (11β-HSD2 [1]; DTT alone, lysate): did not significantly alter enzymatic activity

CCC[CH2][Sn][CH2]CCC [DBT, dibutyltin]
IC50 (11β-HSD2 [2]): 5030 ± 700 nM | 11β-HSD2 activity in intact cells, compound alone (11β-HSD2 [2]): reduced 11β-HSD2 activity only slightly | IC50 (11β-HSD2 [1]; [6]): 1950 ± 270 nM

c1cc[c]([Sn][c]2ccccc2)cc1 [DPT, diphenyltin]
IC50 (11β-HSD2 [2]): 2890 ± 590 nM | 11β-HSD2 activity in intact cells, compound alone (11β-HSD2 [2]): reduced 11β-HSD2 activity only slightly | IC50 (11β-HSD2 [1]; [6]): 1420 ± 170 nM

CCC[CH2][Sn]([CH2]CCC)[CH2]CCC [TBT, tributyltin]
IC50 (11β-HSD2 [2]): 1520 ± 430 nM | 11β-HSD2 activity in intact cells, compound alone (11β-HSD2 [2]): reduced 11β-HSD2 activity only slightly | stronger inhibition in RCCD-2 cells than in HEK-293 cells (11β-HSD2 [3]; intact cells): approximately 2 fold | IC50 (11β-HSD2 [3]; read-out: IC50 11β-HSD2 in intact RCCD-2 cells, endogenous enzyme, rat renal cortical collecting duct cells): 830 ± 230 nM | inhibition of 11β-HSD2 in SW-620 cells compared with HEK-293 cells (11β-HSD2 [4]; colon-derived): highly similar to that observed in HEK-293 cells | inhibition of 11β-HSD2 in JEG-3 cells compared with HEK-293 cells (11β-HSD2 [4]; placenta-derived): highly similar to that observed in HEK-293 cells | IC50 (11β-HSD2 Cys^48Ser): 2110 ± 330 nM | IC50 (11β-HSD2 Cys^127Ser): 2230 ± 330 nM | IC50 (11β-HSD2 Cys^371Ser): 2170 ± 500 nM | IC50 (11β-HSD2 Cys^128Ser): 1870 ± 530 nM | increase in IC50 with Cys^264Ser versus wild-type (11β-HSD2 Cys^264Ser): 2 fold | IC50 (11β-HSD2 Cys^264Ser; read-out: TBT IC50 ± SD, Cys^264Ser, mutant Cys^264Ser): 4.2 ± 0.44 µM | IC50 (11β-HSD2 Cys^188Ser): 1950 ± 380 nM | IC50 (11β-HSD2 Cys^248Ser): 2070 ± 470 nM | inhibition of 17β-HSD1 (17β-HSD1): neither TBT nor TPT inhibited | IC50 (17β-HSD1): > 200 µM | IC50 (11β-HSD2 [1]; [6]): 1900 ± 660 nM | increase of apparent Km (11β-HSD2 [1]; 2 μM TBT versus control): 2 fold | change of inhibitory effect upon preincubation (11β-HSD2 [1]; 2 μM TBT, preincubation 5 or 10 min, lysate): the changes did not reach significance | Vmax of 11β-HSD2 in presence of inhibitor (11β-HSD2 [1]; 2 μM TBT): 1.66 ± 0.40 nmol/h/mg | increase of apparent Km (11β-HSD2 [1]; 3 μM TBT versus control): 3 fold | Vmax of 11β-HSD2 in presence of inhibitor (11β-HSD2 [1]; 3 μM TBT): 1.48 ± 0.48 nmol/h/mg | effect of dilution of enzyme-inhibitor complex on relative inhibition (11β-HSD2 [1]; 2-fold and 4-fold dilution of the EI complex): proportional decrease of the relative inhibitory effect | IC50 (11β-HSD2 [1]; Table 2, wild-type enzyme, lysate, read-out: TBT IC50 ± SD, wild-type 11β-HSD2): 1900 ± 460 nM | mode of inhibition of 11β-HSD2 (11β-HSD2 [1]; from change of Km and Vmax with TBT): mixed-competitive mode of inhibition | IC50 (17β-HSD2): > 200 µM | inhibition of 11β-HSD1-dependent conversion of cortisone to cortisol (11β-HSD1): did not inhibit | IC50 (11β-HSD1): > 200 µM | toxic daily intake [5]: 0.25 μg/kg body weight

c1cc[c]([Sn]([c]2ccccc2)[c]2ccccc2)cc1 [TPT, triphenyltin]
IC50 (11β-HSD2 [2]): 990 ± 240 nM | 11β-HSD2 activity in intact cells, compound alone (11β-HSD2 [2]): reduced 11β-HSD2 activity only slightly | inhibition of 17β-HSD1 (17β-HSD1): neither TBT nor TPT inhibited | IC50 (17β-HSD1): > 200 µM | IC50 (11β-HSD2 [1]; [6]): 3190 ± 730 nM | IC50 for 17β-HSD2 relative to IC50 for 11β-HSD2 (17β-HSD2; lysates): 6 fold | IC50 (17β-HSD2): 19 ± 3 µM | inhibition of 11β-HSD1-dependent conversion of cortisone to cortisol (11β-HSD1): did not inhibit | IC50 (11β-HSD1): > 200 µM

N[C@@H](CCC(=O)N[C@@H](CS)C(=O)NCC(=O)O)C(=O)O [glutathione, reference compound]
prevention of organotin-dependent inhibition of 11β-HSD2 (11β-HSD2 [1]; not shown): not able to prevent
